The text below walks through data of US20250073281A1, “LACTOBACILLUS REUTERI HAVING IMPROVED ANTI-AGING AND HAIR HEALTH ENHANCEMENT EFFECTS, AND APPLICATION THEREOF” (priority 2021, published 2025).

The test deals with Lactobacillus reuteri VHProbi E18. In words: Antibiotic tolerance experiment, MIC by broth microdilution. Format: cell-based. The settings on record: for MIC: antibiotic against Lactobacillus reuteri VHProbi E18. Here is the method: The minimum inhibitory concentration (MIC) value of antibiotics against Lactobacillus reuteri VHProbi E18 was determined by the broth microdilution method.

Setting [1] is: Limosilactobacillus reuteri, read-out: MIC.

≈ marks a conversion by molar mass, not a printed value. Where two headings read alike, the source gives them in different places.

Regarding `CC1(C)S[C@@H]2[C@H](NC(=O)[C@H](N)c3ccccc3)C(=O)N2[C@H]1C(=O)O` [Ampicillin], the “sensitivity of Lactobacillus reuteri VHProbi E18 to the antibiotic” value is reported as “sensitive”. Also, under setting [1], the MIC is 1 µg/mL (≈ 2.86 µM).

As for `CCC[C@@H]1C[C@@H](C(=O)N[C@@H]([C@H]2O[C@H](SC)[C@H](O)[C@@H](O)[C@H]2O)[C@H](C)Cl)N(C)C1` [Clindamycin], under setting [1], the MIC was 256 µg/mL (≈ 602 µM).

Regarding `CC[C@H]1OC(=O)[C@H](C)[C@@H](O[C@H]2C[C@@](C)(OC)[C@@H](O)[C@H](C)O2)[C@H](C)[C@@H](O[C@@H]2O[C@H](C)C[C@H](N(C)C)[C@H]2O)[C@](C)(O)C[C@@H](C)C(=O)[C@H](C)[C@@H](O)[C@]1(C)O` [Erythromycin], the “sensitivity of Lactobacillus reuteri VHProbi E18 to the antibiotic” value is listed as “sensitive”. In addition, under setting [1], the MIC was found to be 1 µg/mL (≈ 1.36 µM).

With `[H]/N=C(/N)N[C@H]1[C@H](O)[C@@H](O)[C@H](O[C@@H]2O[C@@H](C)[C@](O)(C=O)[C@H]2O[C@@H]2O[C@@H](CO)[C@H](O)[C@@H](O)[C@@H]2NC)[C@@H](N/C(N)=N\[H])[C@@H]1O` [Streptomycin], the MIC under setting [1] worked out at 512 µg/mL (≈ 880 µM).

For `CN(C)[C@@H]1C(O)=C(C(N)=O)C(=O)[C@@]2(O)C(O)=C3C(=O)c4c(O)cccc4[C@@](C)(O)[C@H]3C[C@@H]12` [Tetracycline], the MIC under setting [1] was found to be 16 µg/mL (≈ 36 µM).

As to Gentamicin, the MIC was found to be 256 µg/mL.
